Source: patent US8283478B2, “Process for preparation of sulfamide derivatives” (Janssen Pharmaceutica NV, priority 2005, dated 2012)

System: CF-1 male albino mice (MES-induced seizure)
Assay: Maximal Electroshock Test (MES), anticonvulsant activity
Assay type: in vivo
Conditions: for MES @ 300 mpk: (number of mice with full body tonic extension prevented)/(total number of mice tested): 300 mpk oral
Procedure: Anticonvulsant activity was determined using the MES test, run according to the procedure described in detail below. Swinyard E A, Woodhead J H, White H S, Franklin M R. Experimental selection, quantification, and evaluation of anticonvulsants. In Levy R H, et al., eds. Antiepileptic Drugs. 3rd ed. New York: Raven Press, 1989:85-102
CF-1 male albino mice (25-35 g) were fasted for 16 hours before testing. Mice were randomly selected into control and test groups, with the animals dosed with vehicle or test compound, at varying concentrations, respectively. On the study date, at 30 minutes prior to shock, the mice were orally dosed with vehicle (0.5% methylcellulose) or test compound (100-300 mg/kg). Seizures were induced by trans-corneal electric shock using a 60-Hz alternating current, 50 mA, delivered for 0.2 sec. The mice in the test groups were subjected to electrical stimulus at time intervals between 15 minutes and 4 hours following administration of test compound. […] The test was complete when the entire course of the convulsion has been observed (typically, less than 1 minute after electrical stimulation), and the mice were then immediately euthanized by carbon dioxide inhalation.
Abolition of the full body tonic extensor component of the seizure was taken as the endpoint of the test. […] The ED50 value of the test compound (calculated when appropriate) was the calculated dose required to block the hind limb tonic-extensor component of the MES-induced seizure in 50% of the rodents tested. A probit analysis was used to calculate the ED50 and 95% fiducial limits (FL).
Representative compounds of the present invention were tested according to the procedure described above, with results as listed in Table 3 below. Results are listed as (number of mice with full body tonic extension prevented)/(total number of mice tested) (@ a given time).

[1] = 100 mpk oral, 0.5 h after dosing

Structure (SMILES) | MES @ 100 mpk: (number of mice with full body tonic extension prevented)/(total number of mice tested) [1] | MES @ 100 mpk: (number of mice with full body tonic extension prevented)/(total number of mice tested) (100 mpk oral, 2 h after dosing) | MES @ 100 mpk: (number of mice with full body tonic extension prevented)/(total number of mice tested) (100 mpk oral, 4 h after dosing) | MES @ 100 mpk (result in words) (100 mpk oral, time not stated) | MES @ 300 mpk: (number of mice with full body tonic extension prevented)/(total number of mice tested) (0.5 hr after dosing) | MES @ 300 mpk: (number of mice with full body tonic extension prevented)/(total number of mice tested) (2 hr after dosing) | MES @ 300 mpk: (number of mice with full body tonic extension prevented)/(total number of mice tested) (4 hr after dosing)
NS(=O)(=O)NCc1csc2ccccc12 [Compound 1, N-(benzo[b]thien-3-ylmethyl)-sulfamide] | 1/5 (0.5 h) | 3/5 (2 h) | 2/5 (4 h) | – | – | – | –
Cn1cc(CNS(N)(=O)=O)c2ccccc21 [Compound 7, N-[(1-methyl-1H-indol-3-yl)methyl]-sulfamide] | – | – | – | inactive | 5/5 (0.5 hr) | 0/5 (2 hr) | 0/5 (4 hr)
Cc1oc2ccccc2c1CNS(N)(=O)=O [Compound 13, N-[(2-methyl-3-benzofuranyl)methyl]-sulfamide] | 4/5 (0.5 h) | 0/5 (2 h) | 0/5 (4 h) | – | – | – | –
NS(=O)(=O)NCc1csc2ccc(Br)cc12 [Compound 15, N-[(5-bromobenzo[b]thien-3-yl)methyl]-sulfamide] | – | – | – | – | 0/3 (0.5 hr) | 0/3 (2 hr) | 1/3 (4 hr)
NS(=O)(=O)NCc1csc2cccc(Br)c12 [Compound 17, N-[(4-bromobenzo[b]thien-3-yl)methyl]-sulfamide] | – | – | – | – | 0/3 (0.5 hr) | 0/3 (2 hr) | 1/3 (4 hr)
NS(=O)(=O)NCc1csc2c(F)cccc12 [Compound 18, N-[(7-fluorobenzo[b]thien-3-yl)methyl]-sulfamide] | – | – | – | – | 0/3 (0.5 hr) | 2/3 (2 hr) | 0/3 (4 hr)
